Experimental findings from US12558342B2, “2-[2-({12,12-dimethyl-4-oxo-6-phenyl-3,11-dioxatricyclo[8.4.0.0,2,7]tetradeca-1,5,7,9-tetraen-8-yl}oxy)acetamido]benzamide and derivatives as inhibitor of clock:bmal1 interaction for the treatment of circadian rhythm diseases and disorders” (KOC UNIVERSITESI, priority 2019, dated 2026) are described below.

The subject of assay [1] is Clock-deficient MDA MB231 cells. Put plainly: Bmal1::dluc rhythm in Clock knockout MDA MB231 cells. The note with it: Clock knockout MDA MB231, different concentrations. The assay is classed as cell-based. Here is the method:
(§1) We used Bmal1::dluc U2-OS and Per1::dluc NIH 3T3, and continuously monitored the bioluminescence to record circadian rhythm. This experiment was performed in 96-well plates (triplicates) and 35-mm dishes (duplicates) in the secondary screen and detailed characterization steps respectively. Briefly, cells were seeded to reach confluency. A day after, the medium was replaced with DMEM containing 0.1 μM Dexamethasone to synchronize cells. […] The 96-well plates were covered and bioluminescence was monitored by Synergy H1 Hybrid Multi-Mode Reader every 32 minutes. […] Bioluminescence was recorded every 10 minutes for 4-6 days. […] The first day's data was excluded from the analysis due to transient perturbations of luminescence after the medium change.
HEK 293T cells at 75-85% confluency were transfected with […] of pLV6-Bmal-luc plasmid, 9 ng of pCMV-AR8.2dvpr packaging vector and 1 ng of pCMV-VSVG envelope vector for 16 h. […] At 72-hour post-transduction, the circadian rhythms of cells monitored using Lumicycle.
We used Bmal1::dluc U2-OS and Per1::dluc NIH 3T3, and continuously monitored the bioluminescence to record circadian rhythm. […] The 96-well plates were covered and bioluminescence was monitored by Synergy H1 Hybrid Multi-Mode Reader every 32 minutes. […] Bioluminescence was recorded every 10 minutes for 4-6 days. […]

A further assay relates to Per1::dluc NIH 3T3 cells. Put plainly: Real-time monitoring of circadian rhythm, Per1::dluc NIH 3T3. It is filed as cell-based, mouse. The method, then:
as §1
We used Bmal1::dluc U2-OS and Per1::dluc NIH 3T3, and continuously monitored the bioluminescence to record circadian rhythm. […] The 96-well plates were covered and bioluminescence was monitored by Synergy H1 Hybrid Multi-Mode Reader every 32 minutes. […] Bioluminescence was recorded every 10 minutes for 4-6 days. […] The first day's data was excluded from the analysis due to transient perturbations of luminescence after the medium change.

The subject of another assay is Bmal1, Clock, and Cry1. Put plainly: In vivo study in mouse liver, qPCR. The note with it: 25 mg/kg i.p., 6 h. Here is the method:
Male C57BL/6J mice, 8 weeks of age, weighing 18-24 g were treated with two different single doses of CLK8 (25 mg/kg n=5 per each dose) intraperitoneally. Control mice (n=3) were only treated with vehicle (DMSO:Cremophor EL: 0.9% NaCl; 2.5:15:82.5, v/v, i.p.). Water and food were provided ad libitum throughout the experiments. Six hours after injection, mice were sacrificed by cervical dislocation. Liver tissues were removed, frozen in liquid nitrogen and stored at −80° C. until further processing.

On to `CC1(C)CCc2c(cc(OCC(=O)Nc3ccccc3C(N)=O)c3c(-c4ccccc4)cc(=O)oc23)O1` [CLK8, 2-[2-({12,12-dimethyl-4-oxo-6-phenyl-3,11-dioxatricyclo [8.4.0.0,2,7]tetradeca-1,5,7,9-tetraen-8-yl}oxy)acetamido] benzamide], for which, in assay [1], the “CLK8-mediated increase in Bmal1-luc intensity” value is “abolished”. The “period of circadian rhythm” value with Per1::dluc NIH 3T3 cells is given as “no period changes”. For the same compound, the “amplitude of circadian rhythm” value in the assay with Per1::dluc NIH 3T3 cells (dose dependent) is on record as “enhances the amplitude”. In addition, the “Cry1 gene's transcriptional level (liver)” value with Bmal1, Clock, and Cry1 is recorded as “significantly changed”.
